In patent US10259810B2, “N-sulfonylated pyrazolo[3,4-b]pyridin-6-carboxamides and method of use” (AbbVie S.à.r.l., priority 2015, dated 2019):

Tests used:
[1] = biological target: T1, ΔF508-CFTR (Homo sapiens, UniProt P13569, DEL508-508); test: CFTR cell surface levels using HRP-tagged ΔF508-CFTR expressing CFBE cells, intrinsic corrector capacity; type: cell-based; set-up: % Activation: concentration or dose not given beside the values; conditions: HRP-tagged ΔF508-CFTR expressing CFBE41o- cells, compound alone (intrinsic corrector capacity), 20 hours at 33° C.; for EC50: read-out: EC50
T1 construct: host or cells: CFBE41o-, doxycycline-inducible
Description: (§1) Measuring CFTR Cell Surface Levels Using HRP-Tagged ΔF508-CFTR Expressing CFBE Cells
(§2) The HRP-tagged ΔF508-CFTR cell assay measures the expression of CFTR-ΔF508 at the plasma membrane. CFTR-ΔF508 has a folding defect leading to absence of protein at the plasma membrane. This assay is used to evaluate the capacity of compounds to increase the expression of CFTR-ΔF508 at the plasma membrane. The CFTR-ΔF508 is tagged with HRP (horse radish peroxidase enzyme) within the ECL4 (Extracellular loop 4) of CFTR (Phuan, P.-W. et al. Synergy-based small-molecule screen using a human lung epithelial cell line yields ΔF508-CFTR correctors that augment VX-809 maximal efficacy. Mol. Pharmacol. 86, 42-51 (2014)). When HRP-tagged ΔF508-CFTR is present at the plasma membrane, the HRP enzyme activity can be measured. The amount of CFTR-ΔF508 that can be rescued to the plasma membrane is correlated with the amount of functional enzyme that can be measured.
(§3) There are several ways to measure the capacity of compounds to rescue CFTR-ΔF508 to the plasma membrane; either compounds are evaluated on their own and the impact on plasma membrane levels is measured or compounds are evaluated in combination with a co-corrector, i.e. a compound that rescues CFTR-ΔF508 to the plasma membrane but rescue can be enhanced by addition of compounds due to a complementary mode of action.
Activity of Compounds for their Intrinsic Corrector Capacity:
For this purpose doxycycline-inducible ΔF508-CFTR-HRP expressing CFBE4lo− cells (obtained from Gergely Lukacs, McGill University) were maintained in MEM (Gibco; 31095) supplemented with 10% fetal bovine serum (Hyclone; SV30160.03) under puromycin (3 μg/mL) and G418 selection (0.2 mg/mL). For compound testing, cells were seeded at 4000 cells/well in white 384-well plates (Greiner; 781080) in 50 μL medium containing 0.5 μg/mL doxycycline and incubated for 68 hours at 37° C., 5% CO2. On day four, […] compounds diluted in PBS were added to the plates at a final DMSO concentration of 0.1%. All compound plates contained negative controls (DMSO) and positive controls ([…] corrector, 3-[(2R,4R)-4-({[1-(2,2-difluoro-1,3-benzodioxol-5-yl)cyclopropyl]carbonyl}amino)-7-methoxy-3,4-dihydro-2H-chromen-2-yl]benzoic acid). Cell plates were incubated at 33° C., 5% CO2 for 20 hours. On day five, the cells were washed five times with phosphate-buffered saline, and HRP activity was assayed by the addition of 50 μL/well of HRP substrate (SuperSignal™ West Pico Chemiluminescent Substrate, Thermo Scientific; 34080). After incubation for 15 minutes in the dark, chemiluminescence was measured using a plate reader (EnVision®, Perkin Elmer). Raw data were normalized to percentage activity values using the equation: 100×(Sample−Negative control)/(Positive control−Negative Control).

[2] = biological target: T1, ΔF508-CFTR; test: CFTR cell surface levels using HRP-tagged ΔF508-CFTR expressing CFBE cells, in the presence of a co-corrector; type: cell-based; conditions: HRP-tagged ΔF508-CFTR CFBE cells, in the presence of 3 μM co-corrector; for EC50: read-out: EC50
Description: as §1, §2, §3
Activity of Compounds in Combination with Co-Corrector:
For this purpose doxycycline-inducible ΔF508-CFTR-HRP expressing CFBE4lo− cells (obtained from Gergely Lukacs, McGill University) were maintained in MEM (Minimum Essential Medium, Gibco; 31095) supplemented with 10% fetal bovine serum (Hyclone; SV30160.03) under puromycin (3 μg/mL) and G418 selection (0.2 mg/mL). For compound testing, cells were seeded at 4000 cells/well in white 384-well plates (Greiner; 781080) in 50 μL of medium containing 0.5 μg/mL doxycycline and incubated for 68 hours at 37° C., 5% CO2. On day four, 10 μL of test compounds diluted in PBS (phosphate buffered saline) were added to the plates at a final DMSO concentration of 0.1%. In order to measure compound synergy with a co-corrector, 3 μM co-corrector (3-[(2R,4R)-4-({[1-(2,2-difluoro-1,3-benzodioxol-5-yl)cyclopropyl]carbonyl}amino)-7-methoxy-3,4-dihydro-2H-chromen-2-yl]benzoic acid) was added along with test compounds. All compound plates contained negative controls (DMSO) and positive controls (3 μM co-corrector). Cell plates were incubated at 33° C., 5% CO2 for 20 hours. On day five, the cells were washed five times with phosphate-buffered saline, and HRP activity was assayed by the addition of 50 μL/well of HRP substrate (SuperSignal™ West Pico Chemiluminescent Substrate, Thermo Scientific; 34080). After incubation for 15 minutes in the dark, the chemiluminescence was measured using a plate reader (EnVision®, Perkin Elmer). Raw data were normalized to percentage activity values using the equation: 100×(Sample−Negative control)/(Positive control−Negative Control).

T1 sequence (P13569 with tags, fused parts or gaps DEL508-508): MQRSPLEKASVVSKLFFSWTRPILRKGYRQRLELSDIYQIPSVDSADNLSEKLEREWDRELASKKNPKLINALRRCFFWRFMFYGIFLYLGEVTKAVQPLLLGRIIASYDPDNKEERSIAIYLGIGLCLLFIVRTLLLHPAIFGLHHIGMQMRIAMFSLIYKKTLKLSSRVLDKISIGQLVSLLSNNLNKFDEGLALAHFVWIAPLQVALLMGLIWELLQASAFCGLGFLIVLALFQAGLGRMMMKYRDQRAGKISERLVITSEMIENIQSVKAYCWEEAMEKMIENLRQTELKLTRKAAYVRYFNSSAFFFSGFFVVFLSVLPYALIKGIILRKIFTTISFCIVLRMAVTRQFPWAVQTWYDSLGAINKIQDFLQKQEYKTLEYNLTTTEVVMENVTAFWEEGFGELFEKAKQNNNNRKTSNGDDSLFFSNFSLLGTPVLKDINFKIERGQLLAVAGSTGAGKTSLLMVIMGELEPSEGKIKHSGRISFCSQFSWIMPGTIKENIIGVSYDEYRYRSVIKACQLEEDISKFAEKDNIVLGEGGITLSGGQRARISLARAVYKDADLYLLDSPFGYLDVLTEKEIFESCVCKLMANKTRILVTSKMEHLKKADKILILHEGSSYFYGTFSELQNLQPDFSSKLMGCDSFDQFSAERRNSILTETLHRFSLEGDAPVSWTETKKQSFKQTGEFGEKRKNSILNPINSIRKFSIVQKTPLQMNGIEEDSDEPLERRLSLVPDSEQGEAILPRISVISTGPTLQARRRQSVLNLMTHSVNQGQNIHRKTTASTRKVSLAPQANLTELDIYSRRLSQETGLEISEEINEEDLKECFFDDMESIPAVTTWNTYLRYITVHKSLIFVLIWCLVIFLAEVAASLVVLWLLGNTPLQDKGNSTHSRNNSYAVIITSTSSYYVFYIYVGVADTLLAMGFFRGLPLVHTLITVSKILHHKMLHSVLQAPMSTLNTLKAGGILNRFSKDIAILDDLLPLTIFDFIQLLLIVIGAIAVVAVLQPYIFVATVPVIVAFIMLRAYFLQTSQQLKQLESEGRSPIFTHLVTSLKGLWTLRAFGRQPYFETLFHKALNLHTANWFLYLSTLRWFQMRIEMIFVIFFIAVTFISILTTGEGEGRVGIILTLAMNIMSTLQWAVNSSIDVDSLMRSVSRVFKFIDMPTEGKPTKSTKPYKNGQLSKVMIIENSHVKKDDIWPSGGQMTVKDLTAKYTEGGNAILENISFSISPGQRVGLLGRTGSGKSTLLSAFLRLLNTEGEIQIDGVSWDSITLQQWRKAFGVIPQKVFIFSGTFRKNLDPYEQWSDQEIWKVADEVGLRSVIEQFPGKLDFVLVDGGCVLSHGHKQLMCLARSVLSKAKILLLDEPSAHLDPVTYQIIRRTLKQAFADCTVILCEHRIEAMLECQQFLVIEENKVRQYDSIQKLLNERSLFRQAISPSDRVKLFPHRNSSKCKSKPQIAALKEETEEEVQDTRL

**Q.** CCN1CCN(Cc2ccc(-c3cc(C(=O)NS(C)(=O)=O)nc4c3c(OC(C)C)nn4C3CCCCC3)cc2)CC1 [Compound 642, 1-cyclohexyl-4-{4-[(4-ethylpiperazin-1-yl)methyl]phenyl}-N-(methanesulfonyl)-3-[(propan-2-yl)oxy]-1H-pyrazolo[3,4-b]pyridine-6-carboxamide] was tested. Which “% Activation” value [1] did it give?
**A.** 222%

**Q.** What about the EC50 [1] of the same compound?
**A.** 235 nM

**Q.** What about the “% Activation” value [2] of the same compound?
**A.** 430.9%

**Q.** And the EC50 [2]?
**A.** 97.3 nM

**Q.** For CS(=O)(=O)NC(=O)c1cc(CN2CCC(N3CCOCC3)CC2)c2c(C3CCC3)nn(-c3ccc(F)cc3)c2n1 [Compound 596, 3-cyclobutyl-1-(4-fluorophenyl)-N-(methanesulfonyl)-4-{[4-(morpholin-4-yl)piperidin-1-yl]methyl}-1H-pyrazolo[3,4-b]pyridine-6-carboxamide], which “% Activation” value [1] is on record?
**A.** 104.3%

**Q.** And the EC50 [1]?
**A.** 1380 nM

**Q.** What about the “% Activation” value [2] of the same compound?
**A.** 304.8%

**Q.** And the EC50 [2]?
**A.** 1910 nM

**Q.** What does the source list for CN(C)S(=O)(=O)NC(=O)c1cc(N2CCC(N3CCCC(F)C3)CC2)c2c(C3CCC3)nn(-c3ccc(F)cc3)c2n1 (centres unmarked) [Compound 563, 3-cyclobutyl-N-(dimethylsulfamoyl)-4-(3-fluoro[1,4'-bipiperidin]-1'-yl)-1-(4-fluorophenyl)-1H-pyrazolo[3,4-b]pyridine-6-carboxamide]?
**A.** % Activation [1]: 298.9%; EC50 [1]: 198 nM; % Activation [2]: 542.9%; EC50 [2]: 111 nM

**Q.** How did the “% Activation” value [1] turn out when COCCN1CCN(S(=O)(=O)NC(=O)c2cc(N3CCC(COC)CC3)c3c(C4CCC4)nn(-c4ccc(F)cc4)c3n2)CC1 [Compound 610, 3-cyclobutyl-1-(4-fluorophenyl)-N-[4-(2-methoxyethyl)piperazine-1-sulfonyl]-4-[4-(methoxymethyl)piperidin-1-yl]-1H-pyrazolo[3,4-b]pyridine-6-carboxamide] was run?
**A.** 182.13%

**Q.** What about the EC50 [1] of the same compound?
**A.** 186 nM

**Q.** What about the “% Activation” value [2] of the same compound?
**A.** 375.5%

**Q.** And the EC50 [2]?
**A.** 119 nM

**Q.** How did the “% Activation” value [1] turn out when COC1CCN(C2CCN(c3cc(C(=O)NS(C)(=O)=O)nc4c3c(C3CCC3)nn4-c3ccc(F)cc3)CC2)CC1 [Compound 548, 3-cyclobutyl-1-(4-fluorophenyl)-N-(methanesulfonyl)-4-(4-methoxy[1,4'-bipiperidin]-1'-yl)-1H-pyrazolo[3,4-b]pyridine-6-carboxamide] was run?
**A.** 307.2%

**Q.** What about the EC50 [1] of the same compound?
**A.** 654 nM

**Q.** What about the “% Activation” value [2] of the same compound?
**A.** 556.9%

**Q.** What about the EC50 [2] of the same compound?
**A.** 553 nM

**Q.** COCC1CCN(c2cc(C(=O)NS(=O)(=O)CC(N)=O)nc3c2c(C2CCC2)nn3-c2ccccc2)CC1 [Compound 384, N-(2-amino-2-oxoethanesulfonyl)-3-cyclobutyl-4-[4-(methoxymethyl)piperidin-1-yl]-1-phenyl-1H-pyrazolo[3,4-b]pyridine-6-carboxamide] was tested. Which “% Activation” value [1] did it give?
**A.** 228%

**Q.** What about the EC50 [1] of the same compound?
**A.** 2860 nM

**Q.** What about the “% Activation” value [2] of the same compound?
**A.** 391.35%

**Q.** And the EC50 [2]?
**A.** 1440 nM

**Q.** Which “% Activation” value [1] does the source give for COCCS(=O)(=O)NC(=O)c1cc(N2CCC(COC)CC2)c2c(C(C)C)nn(CC(C)C)c2n1 [Compound 265, N-(2-methoxyethanesulfonyl)-4-[4-(methoxymethyl)piperidin-1-yl]-1-(2-methylpropyl)-3-(propan-2-yl)-1H-pyrazolo[3,4-b]pyridine-6-carboxamide] here?
**A.** 240.8%

**Q.** And the EC50 [1]?
**A.** 3330 nM

**Q.** What about the “% Activation” value [2] of the same compound?
**A.** 427.8%

**Q.** And the EC50 [2]?
**A.** 2140 nM

**Q.** Which results are given for CS(=O)(=O)NC(=O)c1cc(OCCCN2CCOCC2)c2c(C3CCC3)nn(-c3ccccc3)c2n1 [Compound 281, 3-cyclobutyl-N-(methanesulfonyl)-4-[3-(morpholin-4-yl)propoxy]-1-phenyl-1H-pyrazolo[3,4-b]pyridine-6-carboxamide]?
**A.** % Activation [1]: 230.15%; EC50 [1]: 457 nM; % Activation [2]: 398.47%; EC50 [2]: 242 nM

**Q.** For CCOC(=O)N1CCC(NS(=O)(=O)NC(=O)c2cc(N3CCC(COC)CC3)c3c(C4CCC4)nn(-c4ccccc4)c3n2)CC1 [Compound 393, ethyl 4-[({3-cyclobutyl-4-[4-(methoxymethyl)piperidin-1-yl]-1-phenyl-1H-pyrazolo[3,4-b]pyridine-6-carbonyl}sulfamoyl)amino]piperidine-1-carboxylate], which “% Activation” value [1] is on record?
**A.** 423.6%

**Q.** And the EC50 [1]?
**A.** 51.4 nM

**Q.** And the “% Activation” value [2]?
**A.** 533.65%

**Q.** And the EC50 [2]?
**A.** 20.8 nM

**Q.** How did the “% Activation” value [1] turn out when CC(C)c1nn(-c2cccc(N3CCOCC3)c2)c2nc(C(=O)NS(C)(=O)=O)cc(-c3ccc(N(C)C)nc3)c12 [Compound 31, 4-[6-(dimethylamino)pyridin-3-yl]-N-(methanesulfonyl)-1-[3-(morpholin-4-yl)phenyl]-3-(propan-2-yl)-1H-pyrazolo[3,4-b]pyridine-6-carboxamide] was run?
**A.** 203.4%

**Q.** What about the EC50 [1] of the same compound?
**A.** 318 nM

**Q.** What about the “% Activation” value [2] of the same compound?
**A.** 423.27%

**Q.** What about the EC50 [2] of the same compound?
**A.** 204 nM

**Q.** With CCCN(C)S(=O)(=O)NC(=O)c1cc(N2CCC(COC)CC2)c2c(C3CCC3)nn(-c3ccccc3)c2n1 [Compound 391, 3-cyclobutyl-4-[4-(methoxymethyl)piperidin-1-yl]-N-[methyl(propyl)sulfamoyl]-1-phenyl-1H-pyrazolo[3,4-b]pyridine-6-carboxamide] as the compound, how does the “% Activation” value [1] read?
**A.** 247.7%

**Q.** What about the EC50 [1] of the same compound?
**A.** 77.1 nM

**Q.** What about the “% Activation” value [2] of the same compound?
**A.** 441.15%

**Q.** What about the EC50 [2] of the same compound?
**A.** 85.5 nM

**Q.** Which “% Activation” value [1] does the source give for CN1CCN(C(=O)[C@@H]2CCCN2S(=O)(=O)NC(=O)c2cc(OCC3CCOCC3)c3c(C4CCC4)nn(-c4ccccc4)c3n2)CC1 [Compound 352, 3-cyclobutyl-N-[(2S)-2-(4-methylpiperazine-1-carbonyl)pyrrolidine-1-sulfonyl]-4-[(oxan-4-yl)methoxy]-1-phenyl-1H-pyrazolo[3,4-b]pyridine-6-carboxamide] here?
**A.** 27.44%

**Q.** And the EC50 [1]?
**A.** 5000 nM

**Q.** And the “% Activation” value [2]?
**A.** 158.4%

**Q.** And the EC50 [2]?
**A.** 2780 nM

**Q.** For CN(C)S(=O)(=O)NC(=O)c1cc(-c2ccc(N3CCC(C#N)CC3)nc2)c2c(C3CCC3)nn(-c3ccccc3)c2n1 [Compound 539, 4-[6-(4-cyanopiperidin-1-yl)pyridin-3-yl]-3-cyclobutyl-N-(dimethylsulfamoyl)-1-phenyl-1H-pyrazolo[3,4-b]pyridine-6-carboxamide], which “% Activation” value [1] is on record?
**A.** 234.5%

**Q.** And the EC50 [1]?
**A.** 71.7 nM

**Q.** What about the “% Activation” value [2] of the same compound?
**A.** 429.3%

**Q.** What about the EC50 [2] of the same compound?
**A.** 38.6 nM

**Q.** Which results are given for CC(C)c1nn(-c2ccc(F)cc2)c2nc(C(=O)NS(C)(=O)=O)cc(OCC3CCOCC3)c12 [Compound 284, 1-(4-fluorophenyl)-N-(methanesulfonyl)-4-[(oxan-4-yl)methoxy]-3-(propan-2-yl)-1H-pyrazolo[3,4-b]pyridine-6-carboxamide]?
**A.** % Activation [1]: 154.4%; EC50 [1]: 276 nM; % Activation [2]: 348.7%; EC50 [2]: 220 nM
